Entries after “also recorded” stand apart in the source; their conditions may differ.
Molecular target: T1, brain TCP (fraction IV) (Mus musculus, UniProt Q8C1W1)
T1 construct: from tissue; host or cells: adult mouse brain, fraction IV (ammonium sulfate cut, Hitrap Q XL flow-through, Hitrap SP XL eluate)
T1 sequence (Q8C1W1 1-375): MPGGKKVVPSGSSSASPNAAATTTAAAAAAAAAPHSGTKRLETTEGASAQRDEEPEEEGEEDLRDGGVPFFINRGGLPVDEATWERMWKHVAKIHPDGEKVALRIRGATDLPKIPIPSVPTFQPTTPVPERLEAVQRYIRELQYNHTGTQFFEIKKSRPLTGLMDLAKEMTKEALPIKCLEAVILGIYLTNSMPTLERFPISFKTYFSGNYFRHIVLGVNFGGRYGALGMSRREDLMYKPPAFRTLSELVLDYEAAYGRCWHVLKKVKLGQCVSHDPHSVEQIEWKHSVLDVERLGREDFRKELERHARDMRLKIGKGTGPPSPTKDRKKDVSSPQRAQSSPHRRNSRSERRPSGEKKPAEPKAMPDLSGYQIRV
T1 sequence (Q99LQ4 1-66 partner): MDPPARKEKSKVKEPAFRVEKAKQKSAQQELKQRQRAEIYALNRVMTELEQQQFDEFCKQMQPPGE
Assay: TCP activity assay, radioactivity test with [14C]-tyrosinated taxol-stabilized microtubules, on enriched brain fraction IV
Format: biochemical
Conditions: FIG. 1B
Method: Preparation of tyrosinated tubulin and microtubule, and EB1. Bovine brain tubulin (12 mg/mL, prepared as in (S. Ramirez-Rios et al., (2016) Molecular biology of the cell 27, 2924) was tyrosinated by incubation for 45 min at 30° C. with purified chicken TTL (1 mg/mL, gift from Steinmetz group) and 0.1 mM L-tyrosine or [14C]-L-tyrosine (0.125 μCi/mole) in 40 mM Pipes at pH 6.7, 60 mM KCl, 2.5 mM ATP, 1 mM DTT, 12.5 mM MgCl2. Microtubules polymerization was allowed by one-third dilution in 100 mM PIPES at pH 6.7. 1 mM EGTA, 1 mM MgCl2, 30% glycerol, 1 mM GTP and incubation at 32° C. for 45 min, followed by another 45 min incubation with 50 μM Paclitaxel (Calbiochem). Microtubules were sedimented by 25 min centrifugation at 100,000 g and 30° C. on 60% glycerol cushions. TTL-containing supernatant was discarded and tyrosinated-microtubules were resuspended in 100 mM PIPES at pH 6.7, 1 mM EGTA, 1 mM MgCl2, 10% glycerol, 80 μM paclitaxel and stored at −20° C. To obtain unpolymerized tyrosinated-tubulin, paclitaxel was omitted during the whole procedure. EB1 was prepared as in S. Ramirez-Rios et al., (2016) Molecular biology of the cell 27, 2924.
TCP activity assays. In radioactivity tests using [14C]-tyrosinated taxol-stabilized microtubule, enzyme activity was measured in 100 mM MES at pH 6.7. 1 mM EGTA and 1 mM MgCl2 using 2 μM radiolabeled tubulin, except in FIGS. 2D and S2D (as indicated in legend). Reactions were performed for 45 min at 37° C. (without or with previous incubation with inhibitors, see legends) and were stopped on ice by addition of 20 μg/ml bovine serum albumin and 10% perchloric acid and centrifugation. Tyrosine cleaved from microtubules was estimated by measuring radioactivity in the supernatant (a zero time control was subtracted). To compose the table of Fig. S1A, detyrosination activity from equal volumes of the various fractions was measured. In tests with inhibitors, detyrosination activity was tested after a 20 min preincubation with inhibitor (except in Figs. S2C and S2) where varying time of incubation were used as indicated in legend), and results with inhibitors were expressed as percentage of the activity in the control with corresponding solvent. In tests using Western-blots, enzyme activity was assayed with 5 μM substrates (taxol-stabilized microtubule, tubulin or EB1) in 100 mM MES at pH 6.7. Positive controls were done with carboxypeptidase A (2 ng/mL). Reactions were stopped by addition of Laemmli buffer. A reaction with carboxypeptidase A (CPA), which efficiently cleaves aromatic and aliphatic C-terminal residues, was used as positive control. In tests using VASH/SVBP complexes purified on cobalt resin from HEK293T cells, enzymes concentration were approximated from in-gel Coomassie-blue staining of purified VASH1 and VASH2 together with standards of bovine serum albumin.
Enzyme enrichment. We designed a three-step purification procedure from brain lysate inspired from previous efforts (N. Kumar, M. Flavin, (1981) The Journal of biological chemistry 256, 7678; C. E. Argarana, H. S. Barra, R. Caputto, (1980) Journal of neurochemistry 34, 114). All steps were carried out at 4° C. Adult mice brains were homogenized in 50 mM phosphate buffer at pH 6.7, 1 mM EGTA, 1 mM MgCl2, 1 μg/ml DNAse with a protease inhibitor cocktail (cOmplete EDTA-free, Roche) and centrifuged 1 h at 100.000 g. The supernatant was collected (Fraction 1). In step 1 (ammonium sulfate fractionation), Fraction 1 was slowly brought to 45% ammonium sulfate, incubated for 15 min and centrifuged 20 min at 15,000 g. Resulting supernatant underwent the same procedure at 65% ammonium sulfate. The pellet was re-suspended in one-eighth of initial volume with 50 mM MES pH 6.7, 1 mM EGTA, 1 mM MgCl2 and desalted using Bio-Gel P30 (Bio-Rad) equilibrated with the same buffer (Fraction 11). […]

IC50 (20 min preincubation with inhibitor, read-out: IC50, inhibition of TCP activity) [µM] | IC50, inhibition of TCP activity (20 min preincubation with inhibitor) [µM] | SMILES | Inhibition of brain TCP activity (in words)
~0.5 |  | CCOC(=O)[C@H]1O[C@@H]1C(=O)N[C@@H](Cc1ccc(O)cc1)C(=O)O [EpoY] | most potent inhibitor
 |  | NCCc1ccc(S(=O)(=O)F)cc1 [AEBSF] | inhibited
 | 300 | CC(C)C[C@H](NC(=O)[C@H]1O[C@@H]1C(=O)O)C(=O)NCCCCN=C(N)N [E-64] | inhibited; also recorded: modest inhibitory activity
 |  | CCN1C(=O)C=CC1=O [N-Ethylmaleimide] | inhibited
